Patent US6489320B1, “5, 5-disubstituted-1, 5-dihydro-4, 1-benzoxazepin-2 (3H)-ones useful as HIV reverse transcriptase inhibitors” (Bristol-Myers Squibb Pharma Company, priority 1997, dated 2002)
Values joined by “and” are separate entries in the source; they are usually repeats but may differ in a detail not shown here. Identical values can stand only once. Counter-ions that a name gives are not always drawn.

| melting point | Structure (SMILES) |
| --- | --- |
| 175 to 175.5 °C | C[C@@H]1O[C@](/C=C/C2CC2)(C(F)(F)F)c2cc(Cl)ccc2NC1=O [Example 39, (+)-(3S,5S)-trans-7-Chloro-5-(2-cyclopropylethenyl)-1,5-dihydro-3-methyl-5-(trifluoromethyl)-4,1-benzoxazepin-2(3H)-one] |
| 180 to 181 °C | CC[C@@H]1O[C@](C#CC2CC2)(C(F)(F)F)c2cc(Cl)ccc2NC1=O (relative stereo) [Example 22, rel-(3S,5S)-7-Chloro-5-cyclopropylethynyl-1,5-dihydro-3-ethyl-5-(trifluoromethyl)-4,1-benzoxazepin-2(3H)-one] |
| 148 to 149 °C | CC(C)/C=C/C1(C(F)(F)F)OCC(=O)Nc2ccc(Cl)cc21 (stereo not drawn) [Example 20, trans-7-Chloro-5-(2-isopropylethenyl)-1,5-dihydro-5-(trifluoromethyl)-4,1-benzoxazepin-2(3H)-one] |
| 145 to 146 °C | C[C@@H]1O[C@](C#CC2CC2)(C(F)(F)F)c2cc(Cl)ccc2NC1=O [Example 36, (+)-(3S,5S)-7-Chloro-5-cyclopropylethynyl-1,5-dihydro-3-methyl-5-(trifluoromethyl)-4,1-benzoxazepin-2(3H)-one] |
| 148 to 149 °C | CC[C@@H]1O[C@](/C=C/C2CC2)(C(F)(F)F)c2cc(F)ccc2NC1=O (relative stereo) [Example 51, rel-(3S,5S)-trans-7-Fluoro-5-(2-cyclopropylethenyl)-1,5-dihydro-3-ethyl-5-(trifluoromethyl)-4,1-benzoxazepin-2(3H)-one] |
| 186 °C | CC[C@@H]1O[C@](C#CC2CC2)(C(F)(F)F)c2cc(F)ccc2NC1=O (relative stereo) [Example 49, rel-(3S,5S)-7-Fluoro-5-(2-cyclopropylethynyl)-1,5-dihydro-3-ethyl-5-(trifluoromethyl)-4,1-benzoxazepin-2(3H)-one] |
| 171 to 172 °C | C=C[C@@H]1O[C@](C#CC2CC2)(C(F)(F)F)c2c(ccc(F)c2F)NC1=O (relative stereo) [Example 45, rel-(3S,5S)-6,7-Difluoro-5-(2-cyclopropylethynyl)-1,5-dihydro-3-ethenyl-5-(trifluoromethyl)-4,1-benzoxazepin-2(3H)-one] |
| 180 to 182 °C | C[C@@H]1O[C@](/C=C/C2CC2)(C(F)(F)F)c2cc(F)ccc2NC1=O (relative stereo) [Example 50, rel-(3S,5S)-trans-7-Fluoro-5-(2-cyclopropylethenyl)-1,5-dihydro-3-methyl-5-(trifluoromethyl)-4,1-benzoxazepin-2(3H)-one] |
| 159 to 160 °C | CC(C)/C=C/C1(C(F)(F)F)OCC(=O)Nc2ccc(F)c(F)c21 (stereo not drawn) [Example 27, trans-6,7-Difluoro-5-(2-isopropylethenyl)-1,5-dihydro-5-(trifluoromethyl)-4,1-benzoxazepin-2(3H)-one] |
| 129 to 130 °C | COc1ccc2c(c1)C(CCC(C)C)(C(F)(F)F)OCC(=O)N2 (stereo not drawn) [Example 21, 7-Methoxy-5-(3-methylbutyl)-1,5-dihydro-5-(trifluoromethyl)-4,1-benzoxazepin-2(3H)-one] |
| 219 to 221 °C | O=C1COC(C#Cc2cccnc2)(C(F)(F)F)c2cc(Cl)ccc2N1 (stereo not drawn) [Example 24, 7-Chloro-5-(3-pyridylethynyl)-1,5-dihydro-5-(trifluoromethyl)-4,1-benzoxazepin-2(3H)-one] |
| 201 to 202 °C | CC[C@@H]1O[C@](C#CC2CC2)(C(F)(F)F)c2c(ccc3c2OCO3)NC1=O (relative stereo) [Example 53, rel-(3S,5S)-6,7-Methylenedioxy-5-(2-cyclopropylethynyl)-1,5-dihydro-3-ethyl-5-(trifluoromethyl)-4,1-benzoxazepin-2(3H)-one] |
| 184 to 185 °C | C[C@@H]1O[C@](C#CC2CC2)(C(F)(F)F)c2cc(F)ccc2NC1=O (relative stereo) [Example 48, rel-(3S,5S)-7-Fluoro-5-(2-cyclopropylethynyl)-1,5-dihydro-3-methyl-5-(trifluoromethyl)-4,1-benzoxazepin-2(3H)-one] |
| 143 to 144 °C | O=C1Nc2ccc(Cl)cc2[C@@](/C=C/C2CC2)(C(F)(F)F)O[C@H]1C1CC1 (relative stereo) [Example 44, rel-(3S,5S)-trans-7-Chloro-5-(2-cyclopropylethenyl)-1,5-dihydro-3-cyclopropyl-5-(trifluoromethyl)-4,1-benzoxazepin-2(3H)-one] |
| 129 to 130 °C | CC[C@H]1O[C@](C#CC2CC2)(C(F)(F)F)c2cc(Cl)ccc2NC1=O (relative stereo) [Example 23, rel-(3R,5S)-7-Chloro-5-cyclopropylethynyl-1,5-dihydro-3-ethyl-5-(trifluoromethyl)-4,1-benzoxazepin-2(3H)-one] |
| 165 to 167 °C and 167 °C | CCC[C@@H]1O[C@](/C=C/C2CC2)(C(F)(F)F)c2cc(Cl)ccc2NC1=O (relative stereo) [Example 30, rel-(3S,5S)-trans-7-Chloro-5-(2-cyclopropylethenyl)-1,5-dihydro-3-propyl-5-(trifluoromethyl)-4,1-benzoxazepin-2(3H)-one] |
| 165.5 to 166.5 °C | C=C[C@@H]1O[C@](/C=C/C2CC2)(C(F)(F)F)c2cc(Cl)ccc2NC1=O (relative stereo) [Example 42, rel-(3S,5S)-trans-7-Chloro-5-(2-cyclopropylethenyl)-1,5-dihydro-3-ethenyl-5-(trifluoromethyl)-4,1-benzoxazepin-2(3H)-one] |
| 169 to 170 °C | CC[C@@H]1O[C@](C#Cc2ccoc2)(C(F)(F)F)c2cc(Cl)ccc2NC1=O (relative stereo) (as salt: sodium) [Example 32, rel-(3S,5S)-7-Chloro-5-(3-furanylethynyl)-1,5-dihydro-3-ethyl-5-(trifluoromethyl)-4,1-benzoxazepin-2(3H)-one] |
| 147 to 147.5 °C | CC[C@@H]1O[C@](/C=C/C2CC2)(C(F)(F)F)c2cc(Cl)ccc2NC1=O (relative stereo) [Example 38, rel-(3S,5S)-trans-7-Chloro-5-(2-cyclopropylethenyl)-1,5-dihydro-3-ethyl-5-(trifluoromethyl)-4,1-benzoxazepin-2(3H)-one] |
| 188 to 190 °C | CC[C@@H]1O[C@](/C=C/C2CC2)(C(F)(F)F)c2c(ccc3c2OCO3)NC1=O (relative stereo) [Example 55, rel-(3S,5S)-trans-6,7-Methylenedioxy-5-(2-cyclopropylethenyl)-1,5-dihydro-3-ethyl-5-(trifluoromethyl)-4,1-benzoxazepin-2(3H)-one] |

Further lines, the molecule ahead of its results:

| Structure (SMILES) | melting point |
| --- | --- |
| CCC#CC1(C(F)(F)F)OC(c2ccccc2)C(=O)Nc2ccc(Cl)cc21 [Example 2, rel-(3S,5S)-5-(1-Butynyl)-7-chloro-1,5-dihydro-3-phenyl-5-(trifluormethyl)-4,1-benzoxazepin-2(3H)-one] | 198 to 199 °C |
| O=C1COC(C#Cc2ccccc2)(C(F)(F)F)c2cc(Cl)ccc2N1 (stereo not drawn) (as salt: sodium) [Example 16, 7-Chloro-5-phenylethynyl-1,5-dihydro-5-(trifluoromethyl)-4,1-benzoxazepin-2(3H)-one] | 190 to 191 °C |
| CCC[C@@H]1O[C@](C#CC2CC2)(C(F)(F)F)c2cc(Cl)ccc2NC1=O (relative stereo) [Example 14a, rel-(3S,5S)-7-Chloro-5-cyclopropylethynyl-1,5-dihydro-3-propyl-5-(trifluoromethyl)-4,1-benzoxazepin-2(3H)-one] | 191 to 192 °C |
| CC(C)[C@@H]1O[C@](C#CC2CC2)(C(F)(F)F)c2cc(Cl)ccc2NC1=O (relative stereo) [Example 15, rel-(3S,5S)-7-Chloro-5-cyclopropylethynyl-1,5-dihydro-3-isopropyl-5-(trifluoromethyl)-4,1-benzoxazepin-2(3H)-one] | 167 °C |
| C[C@@H]1O[C@](/C=C/C2CC2)(C(F)(F)F)c2cc(Cl)ccc2NC1=O (relative stereo) [Example 6, rel-(3S,5S)-trans-7-Chloro-5-(2-cyclopropylethenyl)-1,5-dihydro-3-methyl-5-(trifluoromethyl)-4,1-benzoxazepin-2(3H)-one] | 171 to 172 °C |
| C[C@@H]1O[C@](/C=C/c2ccco2)(C(F)(F)F)c2cc(Cl)ccc2NC1=O (relative stereo) [Example 9, rel-(3S,5S)-trans-7-Chloro-1,5-dihydro-5-(2-furan-2-ylethenyl)-3-methyl-5-(trifluoromethyl)-4,1-benzoxazepin-2(3H)-one] | 205 to 206.5 °C |
| CC(C)C#CC1(C(F)(F)F)OCC(=O)Nc2ccc(F)cc21 (stereo not drawn) [Example 7, 1,5-Dihydro-7-fluoro-5-isopropylethynyl-5-(trifluoromethyl)-4,1-benzoxazepin-2(3H)-one] | 172 to 173 °C |
| O=C1COC(/C=C/C2CC2)(C(F)(F)F)c2cc(Cl)ccc2N1 (stereo not drawn) [Example 5, trans-7-Chloro-5-(2-cyclopropylethenyl)-1,5-dihydro-5-(trifluoromethyl)-4,1-benzoxazepin-2(3H)-one] | 157 to 158 °C |
| CCC[C@H]1O[C@](C#CC2CC2)(C(F)(F)F)c2cc(Cl)ccc2NC1=O (relative stereo) [Example 14b, rel-(3R,5S)-7-Chloro-5-cyclopropylethynyl-1,5-dihydro-3-propyl-5-(trifluoromethyl)-4,1-benzoxazepin-2(3H)-one] | 141 °C |
| O=C1COC(/C=C/c2ccco2)(C(F)(F)F)c2cc(Cl)ccc2N1 (stereo not drawn) [Example 10, trans-7-Chloro-1,5-dihydro-5-(2-furan-2-yl)ethenyl-5-(trifluoromethyl)-4,1-benzoxazepin-2(3H)-one] | 199 to 200 °C |
| O=C1COC(C#CC2CC2)(C(F)(F)F)c2cc(Cl)ccc2N1 (stereo not drawn) [Example 18, 7-Chloro-5-cyclopropylethynyl-1,5-dihydro-5-(trifluoromethyl)-4,1-benzoxazepin-2(3H)-one] | 199.5 to 200.5 °C |
| CC(C)C#CC1(C(F)(F)F)OCC(=O)Nc2ccc(F)c(F)c21 (stereo not drawn) [Example 13, 6,7-Difluoro-1,5-dihydro-5-(isopropylethynyl)-5-(trifluoromethyl)-4,1-benzoxazepin-2(3H)-one] | 192.5 to 193.5 °C |
| CC(C)C#CC1(C(F)(F)F)OCC(=O)Nc2ccc(Cl)cc21 (stereo not drawn) [Example 3, 7-Chloro-1,5-dihydro-5-(isopropylethynyl)-5-(trifluoromethyl)-4,1-benzoxazepin-2(3H)-one] | 183 to 183.5 °C |
